According to PMC6290023 (Scientific Reports, 2018):
Peptide text beside a SMILES is read from it.

Key:
[1] = Stability of MHP1 in mouse serum (HPLC/MS); format: in vitro ADME; conditions: mouse (CD-1(ICR)) serum, 200 μg/mL MHP1, 37 °C, HPLC UV 210 nm, mean ± SD
Protocol: Mouse (CD-1(ICR)) serum was obtained from KAC (Kyoto, Japan) and stored below −15 °C until use. MHP1 (2 mg/mL in ultrapure water) was spiked in mouse serum on ice to obtain a final concentration of 200 μg/mL. The serum was incubated at 37 °C and aliquots of the reaction mixture collected at the incubation times 0, 10, 30, and 60 min. Each aliquot was deproteinized with the addition of an ice-cold solvent (acetonitrile: methanol: acetic acid = 500:500:1). The mixtures were left at −20 °C for 20 minutes and stored on ice. After the addition of 1% acetic acid, the mixture was vigorously vortexed and centrifuged (12000 × g, 4 °C, 10 min). The supernatant was injected into the HPLC system and analyzed by reversed-phase chromatography with a water–acetonitrile (0.1% trifluoroacetic acid) linear gradient elution. MHP1 was detected by ultraviolet light at 210 nm.

TLR2, 7, 8 = conditions: cited from earlier work
Excerpt: (§1) To solve this problem, we developed a novel peptide “microglial healing peptide1 (MHP1)”, which is a partial peptide of RANKL, to inhibit […] inflammation without activating osteoclast. The binding sites of RANKL for its receptor RANK responsible for osteoclastogenesis were not included in the MHP1 sequence, but other binding sites that are unrelated to osteoclastogenesis (DE and EF loops) were included. […] The sequence of MHP1 is “[…]” and we demonstrat ...

[2] = tested on: mouse osteoclast precursor cells; conditions: cited from earlier work
Excerpt: as §1

tMCAo model in mice = conditions: cited from earlier work
Protocol: As we have previously shown that intravenous injection of MHP1 (150 μL, 2 mg/ml), started from 6 hrs after tMCAo and followed by subcutaneous injection with Alzet pump (200 μL, 2 mg/ml) for 24 h, is effective, we studied whether a lower dose of MHP1-AcN was effective in reducing ischemic injury.

LPS-stimulated MG6 cells = conditions: peptide incubated at 37 °C for 24 h; cited from earlier work
Protocol: This might be a result of the key sequence of MHP1 being preserved owing to N-terminus acetylation, which generally makes the peptide resistant to protease degradation. The difference in causing sedimentation at 37 °C for 24 h between MHP1-Ac and MHP1-AcN was dependent on the existence of C-terminal amidation, which has been reported to promote the stabilization of the secondary structure of the peptide.

[3] = tested on: FeCl3-induced thrombosis model in CCA; test: FeCl3-induced thrombosis model in CCA, thrombolysis with tPA; format: in vivo; conditions: mouse, tPA 10 mg/kg 30 min post-CCA occlusion
Protocol: The ischemic damage was evaluated at 48 h after MCAo in sections stained with cresyl violet. Coronal sections (12 μm thickness) were made at −1.4, −0.7, 0, 0.7 and 1.4 mm from the bregma, mounted on the stereomicroscope and photographed. The volume of the infarct was calculated by the sum of each area of all sections corrected by cerebral edema and multiplied by the thickness of the slices. In the experiment of tPA-induced hemorrhage, PE10-catheter was placed in the right internal jugular vein at 6 h after ischemia. The nylon suture was then removed and 10% of the MHP-AcN mixture (150 µg/mice) and tPA (10 mg/kg) were injected followed by continuous injection of residual mixture of MHP1-AcN and tPA using a syringe pump (UNIVENTOR 400 ANAESTHESIA UNIT, ZTN, MALTA). In the experiment of FeCl3 -induced thrombosis model in CCA, a piece of filter paper soaked in 7.5% FeCl3 was placed on the right CCA for 1 min and it was rinsed with saline. Blood flow was recorded by using a laser speckle blood flow imager (OMEGAZONE OZ-2, OMEGAWAVE, INC., Tokyo, Japan). tPA (10 mg/kg) or mixture of MHP1-AcN (150 μg/mice) and tPA was started to be administered at 30 min after CCA occlusion.

Row | Compound | remaining at 10 min, 200 μg/mL ([1]; 10 min, read-out: residual MHP1 remaining intact in mouse serum) [%] | residual MHP1 remaining intact in mouse serum ([1]; 30 min) [%] | remaining at 0.5 h, 200 μg/mL ([1]; 30 min, read-out: residual MHP1 remaining intact in mouse serum) [%] | remaining at 1 h, 200 μg/mL ([1]; 60 min, read-out: residual MHP1 remaining intact in mouse serum) [%] | effect on TLR2, 7, 8-induced inflammations (TLR2, 7, 8) | effect on RANKL-induced osteoclast activation [2] | effect on osteoclast activation (peptide alone) [2] | efficacy in tMCAo (tMCAo model in mice; i.v. 150 μL, 2 mg/ml from 6 hrs after tMCAo, then s.c. Alzet pump 200 μL, 2 mg/ml for 24 h) | ischemic injury in tMCAO model (tMCAo model in mice; intracerebroventricularly 4 h, or intravenously 4 or 6 h post-ischemia) | anti-inflammatory effects after incubation at 37 °C for 24 h (LPS-stimulated MG6 cells) | time from tPA application to clot lysis (recanalization) [3]
1 | CC[C@H](C)[C@H](NC(=O)[C@H](CO)NC(=O)[C@@H](NC(=O)[C@H](CCCCN)NC(=O)[C@@H](NC(=O)[C@@H](NC(=O)[C@H](Cc1ccc(O)cc1)NC(=O)[C@@H](NC(=O)[C@H](CCSC)NC(=O)[C@@H](N)CC(C)C)C(C)C)C(C)C)C(C)C)[C@@H](C)O)C(=O)N[C@@H](CCCCN)C(=O)N[C@H](C(=O)N1CCC[C@H]1C(=O)N[C@@H](CO)C(=O)N[C@@H](CO)C(=O)N[C@@H](Cc1c[nH]cn1)C(=O)N[C@@H](CC(N)=O)C(=O)N[C@@H](CC(C)C)C(=O)N[C@@H](CCSC)C(=O)N[C@@H](CCCCN)C(=O)NCC(=O)NCC(=O)N[C@@H](CO)C(=O)N[C@H](C(=O)N[C@@H](CCCCN)C(=O)N[C@@H](CC(N)=O)C(=O)N[C@@H](Cc1c[nH]c2ccccc12)C(=O)N[C@@H](CO)C(=O)NCC(=O)N[C@@H](CC(N)=O)C(=O)O)[C@@H](C)O)[C@@H](C)CC [MHP1] (H-LMVYVVKTSIKIPSSHNLMKGGSTKNWSGN-OH) | 83 ± 5.9 | 50.3 ± 3.6 | 50 | 27.5 ± 3.2 | inhibited | inhibited RANKL-induced osteoclast activation | did not affect osteoclast activation | effective | reduced | loses its anti-inflammatory effects | –
2 | tPA: tissue plasminogen activator, thrombolytic used in acute ischemic stroke | – | – | – | – | – | – | – | – | – | – | approximately 20 min
